# Test results from patent US9938269B2, “Inhibitor compounds of phosphodiesterase type 10A” (ABBVIE INC., priority 2011, dated 2018).
# Structures can show the parent of a compound that is named as a salt.
# Tests used:
# [1] = Determination of the microsomal half-life, rat liver microsomes; settings: rat, liver microsomes, pH 7.4
# Description: The test substances were incubated in a concentration of 0.5 μM as follows:
# 0.5 μM test substance are preincubated together with liver microsomes from different species (from rat, human or other species) (0.25 mg of microsomal protein/10 in 0.05 M potassium phosphate buffer of pH 7.4 in microtiter plates at 37° C. for 5 min. The reaction is started by adding NADPH (1 mg/mL). After 0, 5, 10, 15, 20 and 30 min., 50 μl aliquots are removed, and the reaction is immediately stopped and cooled with the same volume of acetonitrile. The samples are frozen until analyzed. The remaining concentration of undegraded test substance is determined by MSMS. The half-life (T½) is determined from the gradient of the signal of test substance/unit time plot, it being possible to calculate the half-life of the test substance, assuming first order kinetics, from the decrease in the concentration of the compound with time. The microsomal clearance (mCl) is calculated from mCl=ln 2/T½/(content of microsomal protein in mg/ml)×1000 [ml/min/mg]
# PDE10A (human) = target: T1, PDE10A (human) (Homo sapiens, UniProt Q9Y233); assay: Measurement of PDE activity (HTRF cAMP kit), human PDE10A; type: biochemical; settings: PDE enzymatic reaction, substrate 20 nM for PDE10, 60 minutes at 29 C
# T1 construct: purchased BPS Bioscience
# T1 sequence (Q9Y233 whole entry): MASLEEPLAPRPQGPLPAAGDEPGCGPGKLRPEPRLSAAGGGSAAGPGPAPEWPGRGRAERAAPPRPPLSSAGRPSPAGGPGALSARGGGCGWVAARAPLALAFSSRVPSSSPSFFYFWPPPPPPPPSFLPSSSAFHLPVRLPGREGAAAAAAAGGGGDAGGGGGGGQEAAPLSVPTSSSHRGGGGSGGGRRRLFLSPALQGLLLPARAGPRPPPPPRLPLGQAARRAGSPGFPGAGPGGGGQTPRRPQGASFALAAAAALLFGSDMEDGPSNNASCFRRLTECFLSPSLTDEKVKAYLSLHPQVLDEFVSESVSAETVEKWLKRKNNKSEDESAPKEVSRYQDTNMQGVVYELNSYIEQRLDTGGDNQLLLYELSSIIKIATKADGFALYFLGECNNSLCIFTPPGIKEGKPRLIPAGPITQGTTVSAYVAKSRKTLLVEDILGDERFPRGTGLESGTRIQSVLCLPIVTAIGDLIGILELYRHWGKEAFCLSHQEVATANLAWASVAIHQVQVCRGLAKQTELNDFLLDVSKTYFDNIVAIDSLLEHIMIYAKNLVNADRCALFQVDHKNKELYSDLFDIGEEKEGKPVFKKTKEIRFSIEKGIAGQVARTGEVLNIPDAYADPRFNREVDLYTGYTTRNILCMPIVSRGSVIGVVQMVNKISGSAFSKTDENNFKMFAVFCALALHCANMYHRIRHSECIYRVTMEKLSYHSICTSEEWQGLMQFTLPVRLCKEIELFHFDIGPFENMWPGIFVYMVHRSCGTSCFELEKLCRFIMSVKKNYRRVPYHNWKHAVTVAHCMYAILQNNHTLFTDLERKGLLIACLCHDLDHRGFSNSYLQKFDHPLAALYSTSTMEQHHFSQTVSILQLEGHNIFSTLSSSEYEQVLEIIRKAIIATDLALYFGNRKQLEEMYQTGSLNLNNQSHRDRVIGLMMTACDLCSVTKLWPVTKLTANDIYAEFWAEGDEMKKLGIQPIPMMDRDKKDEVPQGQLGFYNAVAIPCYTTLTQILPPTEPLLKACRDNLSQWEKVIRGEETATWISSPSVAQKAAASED
# How it was run: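 Recombinant human PDE10A (10–250 pM range across PDEs) with 20 nM cAMP substrate in 20 mM Tris-HCl pH 7.5, 10 mM MgCl2, 0.1% BSA, compound pre-mixed with enzyme. Ran 60 min at 29 °C. Remaining cAMP read by HTRF, converted to % of uninhibited activity, and IC50 fitted.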
# [2] = Determination of the microsomal half-life, human liver microsomes; settings: human, liver microsomes, pH 7.4
microsomal CLint at 0.5 μM [1],IC50 (PDE10A (human)),microsomal CLint at 0.5 μM [2],Compound
100 to 220 µL/min/mg,< 100 nM,< 100 µL/min/mg,"COc1ccc(-c2ccnn2C)c2c1C(=O)N(CCc1nc3ccccc3s1)C2 [compound 399, 2-[2-(1,3-Benzothiazol-2-yl)ethyl]-7-methoxy-4-(2-methylpyrazol-3-yl)isoindolin-1-one]"
> 220 µL/min/mg,< 100 nM,< 100 µL/min/mg,"COc1ccc(-c2cc[nH]n2)c2c1C(=O)N(CCc1nc3ccccc3s1)C2 [compound 400, 2-[2-(1,3-Benzothiazol-2-yl)ethyl]-7-methoxy-4-(1H-pyrazol-3-yl)isoindolin-1-one]"
100 to 220 µL/min/mg,< 100 nM,< 100 µL/min/mg,"CC(C)c1ccc(CCN2Cc3nccc(N4CCOCC4)c3C2=O)nc1 [compound 401, 6-[2-(5-Isopropyl-2-pyridyl)ethyl]-4-morpholino-7H-pyrrolo[3,4-b]pyridin-5-one]"
100 to 220 µL/min/mg,< 100 nM,100 to 220 µL/min/mg,"O=C1c2c(-c3ccncc3)ccnc2CN1CCc1nc2ccc(F)cc2s1 [compound 402, 6-[2-(6-Fluoro-1,3-benzothiazol-2-yl)ethyl]-4-(4-pyridyl)-7H-pyrrolo[3,4-b]pyridin-5-one]"
100 to 220 µL/min/mg,< 100 nM,< 100 µL/min/mg,"O=C1c2c(-c3ccncc3)ccnc2CN1CCc1nc2ccc(Cl)cc2s1 [compound 403, 6-[2-(6-Chloro-1,3-benzothiazol-2-yl)ethyl]-4-(4-pyridyl)-7H-pyrrolo[3,4-b]pyridin-5-one]"
100 to 220 µL/min/mg,< 100 nM,> 220 µL/min/mg,"O=C1c2c(N3CCOCC3)ccnc2CN1CCc1nc2ccc(F)cc2s1 [compound 405, 6-[2-(6-Fluoro-1,3-benzothiazol-2-yl)ethyl]-4-morpholino-7H-pyrrolo[3,4-b]pyridin-5-one]"
< 100 µL/min/mg,200 to 500 nM,< 100 µL/min/mg,"Cc1cccnc1CCN1Cc2nccc(-c3ccncc3)c2C1=O [compound 409, 6-[2-(3-Methyl-2-pyridyl)ethyl]-4-(4-pyridyl)-7H-pyrrolo[3,4-b]pyridin-5-one]"
100 to 220 µL/min/mg,< 100 nM,> 220 µL/min/mg,"COc1ccc(NC2COC2)c2c1CN(CCc1nc3ccccc3n1C)C2=O [compound 411, 4-Methoxy-2-[2-(1-methyl-1H-benzoimidazol-2-yl)-ethyl]-7-(oxetan-3-ylamino)-2,3-dihydro-isoindol-1-one]"
< 100 µL/min/mg,< 100 nM,< 100 µL/min/mg,"O=C1c2c(-c3cc[nH]n3)ccnc2CN1CCc1cn2ccccc2n1 [compound 413, 6-(2-Imidazo[1,2-a]pyridin-2-yl-ethyl)-4-(1H-pyrazol-3-yl)-6,7-dihydro-pyrrolo[3,4-b]pyridin-5-one]"
< 100 µL/min/mg,< 100 nM,< 100 µL/min/mg,"O=C1c2c(-c3ccoc3)ccnc2CN1CCc1cn2ccccc2n1 [compound 414, 4-Furan-3-yl-6-(2-imidazo[1,2-a]pyridin-2-yl-ethyl)-6,7-dihydro-pyrrolo[3,4-b]pyridin-5-one]"
< 100 µL/min/mg,< 100 nM,< 100 µL/min/mg,"Cc1ccc2c(c1)nc(CCN1Cc3nccc(N4CCOCC4)c3C1=O)n2C [compound 415, 6-[2-(1,5-Dimethyl-1H-benzoimidazol-2-yl)-ethyl]-4-morpholin-4-yl-6,7-dihydro-pyrrolo[3,4-b]pyridin-5-one]"
< 100 µL/min/mg,< 100 nM,< 100 µL/min/mg,"Cc1ccc2c(c1)nc(CCN1Cc3nccc(NC4COC4)c3C1=O)n2C [compound 416, 6-[2-(1,5-Dimethyl-1H-benzoimidazol-2-yl)-ethyl]-4-(oxetan-3-ylamino)-6,7-dihydro-pyrrolo[3,4-b]pyridin-5-one]"
< 100 µL/min/mg,100 to 200 nM,< 100 µL/min/mg,"O=C1c2c(N3CCOCC3)ccnc2CN1CCc1nc2ccccc2o1 [compound 417, 6-[2-(1,3-Benzoxazol-2-yl)ethyl]-4-morpholino-7H-pyrrolo[3,4-b]pyridin-5-one]"

# The remaining lines, values behind:
Compound,microsomal CLint at 0.5 μM [1],IC50 (PDE10A (human)),microsomal CLint at 0.5 μM [2]
"O=C1c2c(N3CCOCC3)ccnc2CN1CCc1nc2ccccc2s1 [Example 377, 6-(2-Benzothiazol-2-yl-ethyl)-4-morpholin-4-yl-6,7-dihydro-pyrrolo[3,4-b]pyridin-5-one]",< 100 µL/min/mg,< 100 nM,< 100 µL/min/mg
"O=C1c2c(-c3cccnc3)ccc(F)c2CN1CCc1cn2ccccc2n1 [Example 378, 4-Fluoro-2-(2-imidazo[1,2-a]pyridin-2-yl-ethyl)-7-pyridin-3-yl-2,3-dihydro-isoindol-1-one]",< 100 µL/min/mg,< 100 nM,100 to 220 µL/min/mg
"O=C1c2c(-c3ccc(F)cc3)ccc(F)c2CN1CCc1cn2ccccc2n1 [Example 379, 4-Fluoro-7-(4-fluoro-phenyl)-2-(2-imidazol[1,2-a]pyridin-2-yl-ethyl)-2,3-dihydro-isoindol-1-one]",> 220 µL/min/mg,100 to 200 nM,100 to 220 µL/min/mg
"COc1ccc(-c2ccc(F)c3c2C(=O)N(CCc2cn4ccccc4n2)C3)cc1 [Example 380, 4-Fluoro-2-(2-imidazo[1,2-a]pyridin-2-yl-ethyl)-7-(4-methoxy-phenyl)-2,3-dihydro-isoindol-1-one]",> 220 µL/min/mg,200 to 500 nM,100 to 220 µL/min/mg
"O=C1c2c(-c3cncnc3)ccc(F)c2CN1CCc1cn2ccccc2n1 [Example 381, 4-Fluoro-2-(2-imidazo[1,2-a]pyridin-2-yl-ethyl)-7-pyrimidin-5-yl-2,3-dihydro-isoindol-1-one]",< 100 µL/min/mg,< 100 nM,100 to 220 µL/min/mg
"Cn1nccc1-c1ccc(F)c2c1C(=O)N(CCc1cn3ccccc3n1)C2 [Example 382, 4-Fluoro-2-(2-imidazo[1,2-a]pyridin-2-yl-ethyl)-7-(2-methyl-2H-pyrazol-3-yl)-2,3-dihydro-isoindol-1-one]",< 100 µL/min/mg,< 100 nM,< 100 µL/min/mg
"O=C1c2c(-c3cn[nH]c3)ccc(F)c2CN1CCc1cn2ccccc2n1 [Example 383, 4-Fluoro-2-(2-imidazo[1,2-a]pyridin-2-yl-ethyl)-7-(1H-pyrazol-4-yl)-2,3-dihydro-isoindol-1-one]",< 100 µL/min/mg,< 100 nM,< 100 µL/min/mg
"O=C1c2c(cccc2N2CCOCC2)CN1CCc1ccc2sccc2n1 [Example 556, 7-Morpholino-2-(2-(thieno[3,2-b]pyridin-5-yl)ethyl)isoindolin-1-one]",100 to 220 µL/min/mg,100 to 200 nM,100 to 220 µL/min/mg
"O=C1c2c(cccc2-c2cncnc2)CN1CCc1ccc2sccc2n1 [Example 559, 7-Pyrimidin-5-yl-2-(2-thieno[3,2-b]pyridin-5-ylethyl)isoindolin-1-one]",100 to 220 µL/min/mg,< 100 nM,> 220 µL/min/mg
"O=C1c2c(N3CCC(CF)C3)ccnc2CN1CCc1cn2ccccc2n1 (stereo not drawn) [compound 384, 4-[3-(Fluoromethyl)pyrrolidin-1-yl]-6-(2-imidazo[1,2-a]pyridin-2-ylethyl)-7H-pyrrolo[3,4-b]pyridin-5-one]",100 to 220 µL/min/mg,< 100 nM,< 100 µL/min/mg
"O=C1c2c(N3CCC(C(F)F)C3)ccnc2CN1CCc1nc2ccccc2s1 (stereo not drawn) [compound 385, 6-[2-(1,3-Benzothiazol-2-yl)ethyl]-4-[3-(difluoromethyl)pyrrolidin-1-yl]-7H-pyrrolo[3,4-b]pyridin-5-one]",100 to 220 µL/min/mg,< 100 nM,100 to 220 µL/min/mg
"O=C1c2c(N3CCC(C(F)F)C3)ccnc2CN1CCc1cn2ccccc2n1 (stereo not drawn) [compound 386, 4-[3-(Difluoromethyl)pyrrolidin-1-yl]-6-(2-imidazo[1,2-a]pyridin-2-ylethyl)-7H-pyrrolo[3,4-b]pyridin-5-one]",100 to 220 µL/min/mg,< 100 nM,< 100 µL/min/mg
"O=C1c2c(N3CCC(CF)C3)ccnc2CN1CCc1nc2ccccc2s1 (stereo not drawn) [compound 387, 6-[2-(1,3-Benzothiazol-2-yl)ethyl]-4-[3-(fluoromethyl)pyrrolidin-1-yl]-7H-pyrrolo[3,4-b]pyridin-5-one]",> 220 µL/min/mg,< 100 nM,100 to 220 µL/min/mg
"O=C1c2c(N3CCS(=O)(=O)CC3)ccnc2CN1CCc1nc2ccccc2s1 [compound 390, 6-[2-(1,3-Benzothiazol-2-yl)ethyl]-4-(1,1-dioxo-1,4-thiazinan-4-yl)-7H-pyrrolo[3,4-b]pyridin-5-one trifluoroacetate]",100 to 220 µL/min/mg,< 100 nM,< 100 µL/min/mg
"Cc1ccc2ccc(CCN3Cc4nccc(-c5ccncc5)c4C3=O)nc2c1 [compound 394, 6-[2-(7-Methyl-2-quinolyl)ethyl]-4-(4-pyridyl)-7H-pyrrolo[3,4-b]pyridin-5-one trifluoroacetate]",> 220 µL/min/mg,< 100 nM,< 100 µL/min/mg
"COc1ccc(-c2ccncc2)c2c1C(=O)N(CCc1nc3ccccc3s1)C2 [compound 396, 2-[2-(1,3-Benzothiazol-2-yl)ethyl]-7-methoxy-4-(4-pyridyl)isoindolin-1-one]",100 to 220 µL/min/mg,< 100 nM,< 100 µL/min/mg
"CC(C)c1ccc(CCN2Cc3nccc(-c4ccncc4)c3C2=O)nc1 [compound 398, 6-[2-(5-Isopropyl-2-pyridyl)ethyl]-4-(4-pyridyl)-7H-pyrrolo[3,4-b]pyridin-5-one]",> 220 µL/min/mg,< 100 nM,100 to 220 µL/min/mg
